Test results: patent publication US20070082880A1 (priority 2005, published 2007)

Target: T1, human PKCθ full length enzyme (Homo sapiens, UniProt Q04759)
T1 construct: human PKCθ full length enzyme (Panvera Catalog No. P2996); purchased Panvera P2996
Assay: PKCθ IMAP Assay
Assay type: biochemical
Details: average value when one or more samples were tested; ATP 6 uM, PKCθ 1 nM
Method: The materials used include the following: human PKCθ full length enzyme (Panvera Catalog No. P2996); substrate peptide: 5FAM-[…]-OH (Molecular Devices, RP7032); ATP (Sigma Cat # A2383); DTT (Pierce, 20291); 5× kinase reaction buffer (Molecular Devices, R7209); 5× binding buffer A (Molecular Devices, R7282), 5× binding buffer B (Molecular Devices, R7209); IMAP Beads (Molecular Devices, R7284); and 384-well plates (Corning Costar, 3710).
The reaction buffer was prepared by diluting the 5× stock reaction buffer and adding DTT to obtain a concentration of 3.0 mM. The binding buffer was prepared by diluting the 5× binding buffer A. A master mix solution was prepared using a 90% dilution of the reaction buffer containing 2×ATP (12 uM) and 2× peptide ([…]). […] The final concentration of compound was 2× and 10% DMSO. DMSO was added to the rest of the master mix to increase the concentration to 10%. 10 ul of the master mix containing 10% DMSO was added to the rest of the wells on the plate except the 2nd column. 20 ul was transferred from the first column to the 2nd column. The compounds were serially diluted in 2:1 ratio starting from the 2nd column. A 2× (2 nM) PKCθ solution was made in the reaction buffer. 10 ul of the PKCθ solution was added to every well to achieve these final concentrations: PKCθ—1 nM; ATP—6 uM; peptide—100 nM; DMSO—5%. Samples were incubated for 25 minutes at room temperature. The binding reagent was prepared by diluting the beads in 1× binding buffer to 800:1. 50 ul of the binding reagent was added to every well and incubated for 20 minutes. FP was measured using Envision2100 (PerkinElmer Life Sciences). Wells with no ATPs and wells with no enzymes were used as controls.

T1 sequence (Q04759 whole entry): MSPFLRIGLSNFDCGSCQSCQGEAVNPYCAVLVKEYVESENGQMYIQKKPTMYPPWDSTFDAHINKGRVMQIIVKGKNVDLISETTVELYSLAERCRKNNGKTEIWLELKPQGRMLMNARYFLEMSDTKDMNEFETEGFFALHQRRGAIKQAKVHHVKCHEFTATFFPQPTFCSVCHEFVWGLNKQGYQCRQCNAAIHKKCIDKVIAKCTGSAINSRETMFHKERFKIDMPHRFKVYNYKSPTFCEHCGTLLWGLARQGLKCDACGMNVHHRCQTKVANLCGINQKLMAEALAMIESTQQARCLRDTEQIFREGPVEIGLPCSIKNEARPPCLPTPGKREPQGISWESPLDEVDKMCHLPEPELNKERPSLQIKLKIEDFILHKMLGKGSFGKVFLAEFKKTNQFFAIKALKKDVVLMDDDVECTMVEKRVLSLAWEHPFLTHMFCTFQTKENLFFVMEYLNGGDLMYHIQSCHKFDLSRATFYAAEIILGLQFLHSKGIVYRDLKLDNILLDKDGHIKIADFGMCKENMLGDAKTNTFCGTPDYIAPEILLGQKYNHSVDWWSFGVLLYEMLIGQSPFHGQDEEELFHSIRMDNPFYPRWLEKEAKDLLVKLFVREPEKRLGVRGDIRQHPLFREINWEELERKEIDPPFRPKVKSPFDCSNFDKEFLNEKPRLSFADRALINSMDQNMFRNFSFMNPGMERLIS

IC50 [nM] | Compound
370 | CN(C)c1ccc(-c2cc3c(Nc4ccc5[nH]ccc5c4)c(C#N)cnc3s2)cc1 [Compound 111, 2-[4-(dimethylamino)phenyl]-4-(1H-indol-5-ylamino)thieno[2,3-b]pyridine-5-carbonitrile]
14 | Cc1c(Nc2c(C#N)cnc3sc(-c4ccc(CN(C)C)cc4)cc23)ccc2[nH]ccc12 [Compound 113, 2-{4-[(dimethylamino)methyl]phenyl}-4-[(4-methyl-1H-indol-5-yl)amino]thieno[2,3-b]pyridine-5-carbonitrile]
570 | CN(C)Cc1ccccc1-c1cc2c(Nc3ccc4[nH]ccc4c3)c(C#N)cnc2s1 [Compound 114, 2-{2-[(dimethylamino)methyl]phenyl}-4-(1H-indol-5-ylamino)thieno[2,3-b]pyridine-5-carbonitrile]
38 | Cc1c(Nc2c(C#N)cnc3sc(-c4ccc(CN5CCN(C)CC5)cc4)cc23)ccc2[nH]ccc12 [Compound 121, 4-[(4-methyl-1H-indol-5-yl)amino]-2-{4-[(4-methylpiperazin-1-yl)methyl]phenyl}thieno[2,3-b]pyridine-5-carbonitrile]
> 55000 | CN(c1ccc2[nH]ccc2c1)c1c(C#N)cnc2sc(-c3ccccc3)cc12 [Compound 122, 4-[1H-indol-5-yl(methyl)amino]-2-phenylthieno[2,3-b]pyridine-5-carbonitrile]
830 | CCc1c(Nc2c(C#N)cnc3sc(-c4ccccc4)cc23)ccc2[nH]ccc12 [Compound 126, 4-[(4-ethyl-1H-indol-5-yl)amino]-2-phenylthieno[2,3-b]pyridine-5-carbonitrile]
550 | N#Cc1cnc2sc(-c3cccc(CN4CCOCC4)c3)cc2c1Nc1ccc2[nH]ccc2c1 [Compound 146, 4-(1H-indol-5-ylamino)-2-[3-(morpholin-4-ylmethyl)phenyl]thieno[2,3-b]pyridine-5-carbonitrile]
170 | CN(C)Cc1ccc(-c2cc3c(Nc4ccc5[nH]ccc5c4)c(C#N)cnc3s2)o1 [Compound 153, 2-{5-[(dimethylamino)methyl]-2-furyl}-4-(1H-indol-5-ylamino)thieno[2,3-b]pyridine-5-carbonitrile]
180 | CN(C)Cc1cc(-c2cc3c(Nc4ccc5[nH]ccc5c4)c(C#N)cnc3s2)co1 [Compound 154, 2-{5-[(dimethylamino)methyl]-3-furyl}-4-(1H-indol-5-ylamino)thieno[2,3-b]pyridine-5-carbonitrile]
38 | COc1ccc(CN(C)C)cc1-c1cc2c(Nc3ccc4[nH]ccc4c3)c(C#N)cnc2s1 [Compound 155, 2-{5-[(dimethylamino)methyl]-2-methoxyphenyl}-4-(1H-indol-5-ylamino)thieno[2,3-b]pyridine-5-carbonitrile]
93 | Cc1c(Nc2c(C#N)cnc3sc(-c4ccccc4CN(C)C)cc23)ccc2[nH]ccc12 [Compound 156, 2-{2-[(dimethylamino)methyl]phenyl}-4-[(4-methyl-1H-indol-5-yl)amino]thieno[2,3-b]pyridine-5-carbonitrile]
44 | N#Cc1cnc2sc(-c3csc(CN4CC[C@H](O)C4)c3)cc2c1Nc1ccc2[nH]ccc2c1 [Compound 157, 2-(5-{[(3S)-3-hydroxypyrrolidin-1-yl]methyl}-3-thienyl)-4-(1H-indol-5-ylamino)thieno[2,3-b]pyridine-5-carbonitrile]
57 | N#Cc1cnc2sc(-c3csc(CN4CCC[C@H]4CO)c3)cc2c1Nc1ccc2[nH]ccc2c1 [Compound 158, 2-(5-{[(2S)-2-(hydroxymethyl)pyrrolidin-1-yl]methyl}-3-thienyl)-4-(1H-indol-5-ylamino)thieno[2,3-b]pyridine-5-carbonitrile]
240 | N#Cc1cnc2sc(-c3cccc(CN4CCCC4)c3)cc2c1Nc1ccc2[nH]ccc2c1 [Compound 159, 4-(1H-indol-5-ylamino)-2-[3-(pyrrolidin-1-ylmethyl)phenyl]thieno[2,3-b]pyridine-5-carbonitrile]
360 | N#Cc1cnc2sc(-c3cccc(CN4CCCCC4)c3)cc2c1Nc1ccc2[nH]ccc2c1 [Compound 160, 4-(1H-indol-5-ylamino)-2-[3-(piperidin-1-ylmethyl)phenyl]thieno[2,3-b]pyridine-5-carbonitrile]
350 | CCN(CC)Cc1cccc(-c2cc3c(Nc4ccc5[nH]ccc5c4)c(C#N)cnc3s2)c1 [Compound 161, 2-{3-[(diethylamino)methyl]phenyl}-4-(1H-indol-5-ylamino)thieno[2,3-b]pyridine-5-carbonitrile]
270 | COCCN(C)Cc1cccc(-c2cc3c(Nc4ccc5[nH]ccc5c4)c(C#N)cnc3s2)c1 [Compound 162, 4-(1H-indol-5-ylamino)-2-(3-{[(2-methoxyethyl)(methyl)amino]methyl}phenyl)thieno[2,3-b]pyridine-5-carbonitrile]
130 | CN(C)CCN1CCN(Cc2cccc(-c3cc4c(Nc5ccc6[nH]ccc6c5)c(C#N)cnc4s3)c2)CC1 [Compound 163, 2-[3-({4-[2-(dimethylamino)ethyl]piperazin-1-yl}methyl)phenyl]-4-(1H-indol-5-ylamino)thieno[2,3-b]pyridine-5-carbonitrile]
88 | CN(CCO)Cc1cccc(-c2cc3c(Nc4ccc5[nH]ccc5c4)c(C#N)cnc3s2)c1 [Compound 164, 2-(3-{[(2-hydroxyethyl)(methyl)amino]methyl}phenyl)-4-(1H-indol-5-ylamino)thieno[2,3-b]pyridine-5-carbonitrile]
110 | COCCNCc1cccc(-c2cc3c(Nc4ccc5[nH]ccc5c4)c(C#N)cnc3s2)c1 [Compound 165, 4-(1H-indol-5-ylamino)-2-(3-{[(2-methoxyethyl)amino]methyl}phenyl)thieno[2,3-b]pyridine-5-carbonitrile]
160 | CN(C)CCNCc1cccc(-c2cc3c(Nc4ccc5[nH]ccc5c4)c(C#N)cnc3s2)c1 [Compound 166, 2-[3-({[2-(dimethylamino)ethyl]amino}methyl)phenyl]-4-(1H-indol-5-ylamino)thieno[2,3-b]pyridine-5-carbonitrile]
110 | N#Cc1cnc2sc(-c3cccc(CNCCCO)c3)cc2c1Nc1ccc2[nH]ccc2c1 [Compound 167, 2-(3-{[(3-hydroxypropyl)amino]methyl}phenyl)-4-(1H-indol-5-ylamino)thieno[2,3-b]pyridine-5-carbonitrile]
520 | N#Cc1cnc2sc(-c3cccc(CN4CCN(CC(=O)N5CCCC5)CC4)c3)cc2c1Nc1ccc2[nH]ccc2c1 [Compound 168, 4-(1H-indol-5-ylamino)-2-(3-{[4-(2-oxo-2-pyrrolidin-1-ylethyl)piperazin-1-yl]methyl}phenyl)thieno[2,3-b]pyridine-5-carbonitrile]
840 | N#Cc1cnc2sc(-c3cccc(CN4CCN(Cc5ccncc5)CC4)c3)cc2c1Nc1ccc2[nH]ccc2c1 [Compound 169, 4-(1H-indol-5-ylamino)-2-(3-{[4-(pyridin-4-ylmethyl)piperazin-1-yl]methyl}phenyl)thieno[2,3-b]pyridine-5-carbonitrile]
430 | N#Cc1cnc2sc(-c3cccc(CNCCN4CCOCC4)c3)cc2c1Nc1ccc2[nH]ccc2c1 [Compound 170, 4-(1H-indol-5-ylamino)-2-(3-{[(2-morpholin-4-ylethyl)amino]methyl}phenyl)thieno[2,3-b]pyridine-5-carbonitrile]
110 | N#Cc1cnc2sc(-c3cccc(CN4CC[C@H](O)C4)c3)cc2c1Nc1ccc2[nH]ccc2c1 [Compound 171, 2-(3-{[(3S)-3-hydroxypyrrolidin-1-yl]methyl}phenyl)-4-(1H-indol-5-ylamino)thieno[2,3-b]pyridine-5-carbonitrile]
69 | N#Cc1cnc2sc(-c3cccc(CN4CC[C@@H](O)C4)c3)cc2c1Nc1ccc2[nH]ccc2c1 [Compound 172, 2-(3-{[(3R)-3-hydroxypyrrolidin-1-yl]methyl}phenyl)-4-(1H-indol-5-ylamino)thieno[2,3-b]pyridine-5-carbonitrile]
130 | N#Cc1cnc2sc(-c3cccc(CN4CCCC(CO)C4)c3)cc2c1Nc1ccc2[nH]ccc2c1 (stereo not drawn) [Compound 173, 2-(3-{[3-(hydroxymethyl)piperidin-1-yl]methyl}phenyl)-4-(1H-indol-5-ylamino)thieno[2,3-b]pyridine-5-carbonitrile]
240 | N#Cc1cnc2sc(-c3cccc(CN4CCC(CO)CC4)c3)cc2c1Nc1ccc2[nH]ccc2c1 [Compound 174, 2-(3-{[4-(hydroxymethyl)piperidin-1-yl]methyl}phenyl)-4-(1H-indol-5-ylamino)thieno[2,3-b]pyridine-5-carbonitrile]

Compound | IC50 [nM]
2-{3-[2-(dimethylamino)ethyl]phenyl}-4-(1H-indol-5-ylamino)thieno[2,3-b]pyridine-5-carbonitrile [Compound 112] | 69
